Test results published in patent US7223733B2, “Modulation of TRIP-Br function and method of treating proliferative disorders” (National University of Singapore, priority 2004, dated 2007).
[invdT] = inverted (3'-3') thymidine

How the values were obtained:
Format in all cases: cell-based, human
hTRIP-Br2 mRNA = test: Semi-quantitative RT-PCR of intact hTRIP-Br2 transcripts in WI-38 cells; settings: WI-38, 0.1 μM, 16 h post-stimulation with 10% FBS
Protocol: (§1) DNA enzyme transfection. WI-38 cells were rendered quiescent by cultivation in serum-free medium for 72 h before being transfected with DNA enzyme (0.1 μM) using Superfect as reported previously (Santiago, F. S., et al. Nat Med 5, 1264-1269 (1999)) in accordance to manufacturer's recommendations (Qiagen).
(§2) Semi-quantitative RT-PCR. Following various treatments, WI-38 cells in 6-well culture dish were subjected to total RNA extraction using the TRIZOL® Reagent (Life Technologies). Total RNA (4 μg) was reversed transcribed using oligo-dT and M-MLV reverse transcriptase in a total reaction volume of 20 μl. Polymerase Chain Reactions (PCR) were carried out on 3 μl cDNA sample in the presence of […] deoxyribonucleotide triphosphates (dNTPs) and 40 μM of specific primer pairs in a total reaction volume of 50 μl. […] Post-PCR samples were analyzed by agarose gel electrophoresis.
(§3) FIG. 11: (A) hTRIP-Br1 and hTRIP-Br2 expression is serum-inducible. […] At 24 h post-serum re-stimulation, semi-quantitative RT-PCR analysis was performed on total RNA to assess hTRIP-Br1 and hTRIP-Br2 expression. β-actin was included as an internal control. […] Semi-quantitative RT-PCR analysis was performed on total RNA to assess hTRIP-Br1 and hTRIP-Br2 expression. β-actin was included as an internal control. […]

[1] = system: cyclin E, Cdk4, cyclin D1 and p27^KIP1; test: Western blot of cyclin E, Cdk4, cyclin D1 and p27KIP1 in WI-38 cells; settings: WI-38, 20 h
Protocol: Western blotting analysis. Cells in 6-well culture dish were washed in cold PBS and lysed in sample buffer (50 mM Tris-Cl, pH 6.8, 2% SDS, 10% glycerol, 0.1% bromophenol blue and 100 mM DTT). Whole cell lysates were heated at 100° C. for 10 minutes prior to electrophoresis. Separation of complex protein mixtures was achieved using a discontinuous polyacrylamide gel electrophoresis system consisting of a stacking gel and a 10% separating gel. Electrophoresis was performed with 1× running buffer (25 mM Tris pH 8.6, 0.19 M glycine, 0.1% SDS) in a mini vertical electrophoresis apparatus (BIO-RAD) at constant voltage (80 V). Separated proteins were transferred to nitrocellulose membrane (Immobilon™-P, Millipore) by electro-blotting (30V overnight at 4° C.) in transfer buffer (50 mM Tris, 384 mM glycine, 20% methanol, 0.01% SDS). Following blocking (1×PBS, 0.5% Tween 20, 4% [w/v] non-fat milk), target proteins were detected using a 1:2,500 dilution of specific primary antibodies. Anti-mouse or anti-rabbit IgG antibodies conjugated with horseradish peroxidase (Santa Cruz) were used to visualize immunoreactive proteins at 1:2,500 dilutions using enhanced chemiluminescence (Pierce).
FIG. 14: (A) E-Br1 or E-Br2 attenuates mitogen-stimulated CCNE gene induction. Sub-confluent WI-38 cells were serum-starved for 72 h. Following DNA enzyme transfection, the cultures were re-stimulated with serum and allowed to proliferate. After 20 h, cells were harvested and total RNA extracted for semi-quantitative RT-PCR to assess CCNE expression. β-actin was included as an internal control. PCR products were resolved by agarose gel electrophoresis and ethidium bromide-stained DNA bands were visualized under UV. […] Sub-confluent WI-38 cells were serum-starved for 72 h. Following transfection with DNA enzyme, the cultures were allowed to proliferate. After 20 h, cells were harvested for western blot (WB) analysis of cyclin E, Cdk4, cyclin D1 and p27^KIP1 expression. Coomassie-stained protein was included as control for normalization.

hTRIP-Br1 mRNA = test: Semi-quantitative RT-PCR of intact hTRIP-Br1 transcripts in WI-38 cells; settings: WI-38, 0.1 μM, 16 h post-stimulation with 10% FBS
Protocol: as §1, §2, §3

| Substance | serum-inducible steady-state hTRIP-Br2 mRNA level (hTRIP-Br2 mRNA) | expression of Cdk4, cyclin D1 and p27^KIP1 [1] | mitogen-induced cyclin E protein expression [1] | serum-inducible steady-state hTRIP-Br1 mRNA level (hTRIP-Br1 mRNA) |
| --- | --- | --- | --- | --- |
| 5′-T TACCCAACAGGCTAGCTACAACGAATATCACA-3′ (DNA TTACCCAACAGGCTAGCTACAACGAATATCACA; DNA, 3' [invdT], backbone not given here) [E-Br2] | efficiently down-regulated | without altering the expression | prevents mitogen-induced cyclin E expression |  |
| 5′-T TGCTCAGCAGGCTAGCTACAACGACTTGCTCA-3′ (DNA TTGCTCAGCAGGCTAGCTACAACGACTTGCTCA; DNA, 3' [invdT], backbone not given here) [E-Br1] |  | without altering the expression | prevents mitogen-induced cyclin E expression | efficiently down-regulated |
